Converted amounts (≈) assume the structure as drawn.
Tests used:
Ab17978 = experiment: MIC, microdilution broth method; assay type: cell-based; settings: Ab17978; Normal (no PMBN); in µg/mL
VRE12204 = experiment: MIC, microdilution broth method; assay type: cell-based, Enterococcus faecium; settings: VRE12204; in µg/mL
UKA10 = experiment: MIC, A. baumannii extended panel; assay type: cell-based
12156 = experiment: MIC, A. baumannii extended panel; assay type: cell-based; settings: A. baumannii 12156
13423 = experiment: MIC, A. baumannii extended panel; assay type: cell-based; settings: A. baumannii 13423
PA01 = experiment: MIC, microdilution broth method; assay type: cell-based, Pseudomonas aeruginosa; settings: PA01; Normal (no PMBN); in µg/mL
VSE775 = experiment: MIC, microdilution broth method; assay type: cell-based, Enterococcus faecalis; settings: VSE775; in µg/mL
UKA13 = experiment: MIC, A. baumannii extended panel; assay type: cell-based
MSSA9144 = experiment: MIC, microdilution broth method; assay type: cell-based, Staphylococcus aureus; settings: MSSA9144; in µg/mL
SA2 = experiment: MIC, extended Gram-positive panel; assay type: cell-based, S. aureus; settings: S. aureus SA2
UKA12 = experiment: MIC, A. baumannii extended panel; assay type: cell-based
UKA7 = experiment: MIC, A. baumannii extended panel; assay type: cell-based

Structure (SMILES): O=C(O)c1cn(C2CC2)c2cc(N3CCNCC3)c(F)cc2c1=O [Ciprofloxacin, ciprofloxacin, reference compound]
- MIC (Ab17978): 0.25
- MIC (VRE12204): 1
- MIC (UKA10): 256 µg/mL (≈ 773 µM)
- MIC 12156: 1 µg/mL (≈ 3.02 µM)
- MIC 13423: 256 µg/mL (≈ 773 µM)
- MIC (PA01): 0.25
- MIC (VSE775): 1
- MIC (UKA13): 512 µg/mL (≈ 1550 µM)
- MIC (MSSA9144): 0.25
- MIC (SA2): 1 µg/mL (≈ 3.02 µM)
- MIC (UKA12): 512 µg/mL (≈ 1550 µM)
- MIC (UKA7): > 512 µg/mL

— patent publication US11746116B2, “Antibiotic resistance breakers” (KING'S COLLEGE LONDON, priority 2017, dated 2023)
